Data published in patent US12065445B2, “CDK2 inhibitors and methods of using the same” (Cedilla Therapeutics, Inc., priority 2021, dated 2024).
pIC50: −log10 of the molar value.

Legend:
Kuramochi cells = test: BrdU Cell Proliferation Assay; assay type: cell-based; settings: read-out: BrdU - KURAMOCHI.1: IC50
Summary of the method: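 Kuramochi cells were seeded at 2,000 cells/well, adhered overnight, then treated with a 10-point, 3-fold compound dilution series for 4 days. Proliferation was measured by a 1-hour BrdU pulse, anti-BrdU peroxidase colorimetric ELISA and 450 nm absorbance. Values were background-subtracted and normalized to DMSO wells.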

[1] = system: Kuramochi cells labeled with mApple-H2B; test: IncuCyte Cell Proliferation Assay; assay type: cell-based
Summary of the method: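 Cells imaged at 0 and 72 h after compound treatment (10 points, ½ log dilution, 20 μM top), with fluorescent nuclei counted. Fold change in count was normalized to DMSO wells and fitted to dose-response curves to give GI50.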

| SMILES | pIC50 (Kuramochi cells) | pIC50 ([1]; 72 h) | pIC50 ([1]; 72 hours) |
| --- | --- | --- | --- |
| COC[C@H]1CCCN(C(=O)[C@@H](NC(=O)[C@@H]2CN(C(=O)c3cncs3)CC23CN(C(=O)[C@H]2CC2(C)C)C3)[C@@H](C)OC(C)C2CCCCC2)C1 (stereo partly drawn) [I-374] | 5.30 to 6.30 | 5.30 to 6.30 | – |
| CNC(=O)[C@@H](NC(=O)[C@@H]1CN(C(=O)c2cncs2)CC12CN(C(=O)[C@H]1CC1(C)C)C2)C1(OCc2ccccc2)CC1 [I-375] | < 5.00 | < 4.70 | – |
| CC1(C)C[C@@H]1C(=O)N1CC2(CN(C(=O)c3cnn(Cc4ccccc4)c3)C[C@H]2C(=O)NCc2ccc(Cl)nn2)C1 [I-376] | < 5.00 | < 4.70 | – |
| CC1(C)C[C@@H]1C(=O)N1CC2(CN(C(=O)c3cnn(Cc4ccccc4)c3)C[C@H]2C(=O)NCc2ccc(C3CCCCC3)nn2)C1 [I-377] | < 5.00 | < 4.70 | – |
| Cc1ccc(CNC(=O)[C@@H]2CN(C(=O)c3cncs3)CC23CN(C(=O)[C@H]2CC2(C)C)C3)nn1 [I-378] | < 5.00 | < 4.70 | – |
| CNC(=O)[C@@H](NC(=O)[C@@H]1CN(C(=O)c2cncs2)CC12CN(C(=O)[C@H]1CC1(C)C)C2)[C@H](O)CC1CCCCC1 [I-379] | < 5.00 | < 4.70 | – |
| C[C@@H](OCC1CCC(F)(F)CC1)[C@H](NC(=O)[C@@H]1CN(C(=O)c2cncs2)CC12CN(C(=O)[C@H]1CC1(C)C)C2)C(=O)N1CCC2(CC1)CC2 [I-380] | ≥ 6.30 | ≥ 6.30 | – |
| Cc1ccc(CNC(=O)[C@H]2CN(C(=O)c3cnn(Cc4ccccc4)c3)CC23CN(C(=O)[C@H]2CC2(C)C)C3)nn1 [I-381] | < 5.00 | < 4.70 | – |
| CC1(C)C[C@@H]1C(=O)N1CC2(CN(C(=O)c3cnn(Cc4ccccc4)c3)C[C@H]2C(=O)NC[C@H]2CC[C@H](C)CC2)C1 [I-382] | < 5.00 | < 4.70 | – |
| C[C@@H](OCC1CCC(F)(F)CC1)[C@H](NC(=O)[C@@H]1CN(C(=O)c2cncs2)CC12CN(C(=O)[C@H]1CC1(C)C)C2)C(=O)N1CCC(O)CC1 [I-383] | 5.00 to 5.30 | 5.30 to 6.30 | – |
| CNC(=O)[C@@H](NC(=O)[C@@H]1CN(C(=O)Cc2cnn(C)c2)CC12CN(C(=O)[C@H]1CC1(C)C)C2)[C@@H](C)OCc1ccccc1 [I-384] | < 5.00 | < 4.70 | – |
| COC1CCN(C(=O)[C@@H](NC(=O)[C@@H]2CN(C(=O)c3cncs3)CC23CN(C(=O)[C@H]2CC2(C)C)C3)[C@@H](C)OCC2CCC(F)(F)CC2)CC1 [I-385] | ≥ 6.30 | ≥ 6.30 | – |
| C[C@@H](OCC1CCC(F)(F)CC1)[C@H](NC(=O)[C@@H]1CN(C(=O)c2cncs2)CC12CN(C(=O)[C@H]1CC1(C)C)C2)C(=O)N1CCC(C)(C)CC1 [I-386] | ≥ 6.30 | ≥ 6.30 | – |
| C[C@@H](OCC1CCC(F)(F)CC1)[C@H](NC(=O)[C@@H]1CN(C(=O)c2cncs2)CC12CN(C(=O)[C@H]1CC1(C)C)C2)C(=O)N1CCC(C(F)(F)F)CC1 [I-398] | ≥ 6.30 | ≥ 6.30 | – |
| COC[C@H]1CCCN(C(=O)[C@@H](NC(=O)[C@@H]2CN(C(=O)c3cncs3)CC23CN(C(=O)C(C)(C)C2CC2)C3)[C@@H](C)OC(C)C2CCC(F)(F)CC2)C1 (stereo partly drawn) [I-399] | 5.30 to 6.30 | 5.30 to 6.30 | – |
| CC1(C)C[C@@H]1C(=O)N1CC2(CN(C(=O)c3cnn(Cc4ccccc4)c3)C[C@H]2C(=O)NCc2ccc(O)nn2)C1 [I-400] | < 5.00 | < 4.70 | – |
| CNC(=O)[C@@H](NC(=O)[C@@H]1CN(C(=O)c2cncs2)CC12CN(C(=O)[C@H]1CC1(C)C)C2)C1(OCC2CCCCC2)CC1 [I-401] | 5.30 to 6.30 | 5.30 to 6.30 | – |
| COC[C@H]1CCCN(C(=O)[C@@H](NC(=O)[C@@H]2CN(C(=O)c3cncs3)CC23CN(C(=O)[C@H]2CC2(C)C)C3)[C@@H](C)OC[C@H]2CC[C@H](OC)CC2)C1 [I-402] | 5.30 to 6.30 | 5.30 to 6.30 | – |

| SMILES | pIC50 (Kuramochi cells) | pIC50 ([1]; 72 h) | pIC50 ([1]; 72 hours) |
| --- | --- | --- | --- |
| CNC(=O)[C@@H](NC(=O)[C@@H]1CN(C(=O)c2cnn(Cc3ccccc3)c2)CC12CN(C(=O)[C@H]1CC1(C)C)C2)[C@@H](C)OC[C@H]1CC[C@H](OC)CC1 [I-403] | < 5.00 | < 4.70 | – |
| C[C@@H](OCC1CCCCC1)[C@H](NC(=O)[C@@H]1CN(C(=O)c2cncs2)CC12CN(C(=O)[C@H]1CC1(C)C)C2)C(=O)N1CCC(c2cnc[nH]2)CC1 [I-406] | 5.30 to 6.30 | 5.30 to 6.30 | – |
| CNC(=O)C(NC(=O)[C@@H]1CN(C(=O)c2cncs2)CC12CN(C(=O)[C@H]1CC1(C)C)C2)c1cccc(N2CCOCC2)n1 (stereo partly drawn) [I-422] | < 5.00 | < 4.70 | – |
| CNC(=O)[C@@H](NC(=O)[C@@H]1CN(C(=O)c2cnn(Cc3ccccc3)c2)CC12CN(C(=O)[C@H]1CC1(C)C)C2)[C@@H](C)OC[C@H]1CC[C@@H](O)CC1 [I-424] | < 5.00 | < 4.70 | – |
| CNC(=O)C(NC(=O)[C@@H]1CN(C(=O)c2cncs2)CC12CN(C(=O)[C@H]1CC1(C)C)C2)c1nc(C2CCCCC2)co1 (stereo partly drawn) [I-425] | < 5.00 | < 4.70 | – |
| CNC(=O)C(NC(=O)[C@@H]1CN(C(=O)c2cncs2)CC12CN(C(=O)[C@H]1CC1(C)C)C2)c1ncc(C2CCCCC2)o1 (stereo partly drawn) [I-426] | < 5.00 | < 4.70 | – |
| CNC(=O)C(NC(=O)[C@@H]1CN(C(=O)c2cncs2)CC12CN(C(=O)[C@H]1CC1(C)C)C2)c1cccc(N2CC3(COC3)C2)n1 (stereo partly drawn) [I-427] | < 5.00 | < 4.70 | – |
| C[C@@H](OCC1CCOCC1)[C@@H](COC(F)(F)F)NC(=O)[C@@H]1CN(C(=O)c2cncs2)CC12CN(C(=O)[C@H]1CC1(C)C)C2 [I-428] | < 5.00 | < 4.70 | – |
| CNC(=O)C(NC(=O)[C@@H]1CN(C(=O)c2cncs2)CC12CN(C(=O)[C@H]1CC1(C)C)C2)c1cccc(N2CC3(CC(C(F)(F)F)C3)C2)n1 (stereo partly drawn) [I-430] | < 5.00 | < 4.70 | – |
| CNC(=O)C(NC(=O)[C@@H]1CN(C(=O)c2cncs2)CC12CN(C(=O)[C@H]1CC1(C)C)C2)c1cccc(N2CCCCC2)n1 (stereo partly drawn) [I-432] | < 5.00 | < 4.70 | – |
| CNC(=O)[C@@H](NC(=O)[C@@H]1CN(C(=O)c2cncs2)CC12CN(C(=O)[C@H]1CC1(C)C)C2)[C@@H](C)OCC1CC2CCC1O2 (stereo partly drawn) [I-462] | < 5.00 | < 4.70 | – |
| CNC(=O)[C@@H](NC(=O)[C@@H]1CN(C(=O)c2cncs2)CC12CN(C(=O)[C@H]1CC1(C)C)C2)[C@@H](C)OC1C2CC3CC(C2)CC1C3 (stereo partly drawn) [I-463] | 5.30 to 6.30 | 5.30 to 6.30 | – |
| CNC(=O)[C@@H](NC(=O)[C@@H]1CN(C(=O)c2cncs2)CC12CN(C(=O)[C@H]1CC1(C)C)C2)[C@@H](C)OC1CC2CCC1CC2 (stereo partly drawn) [I-464] | 5.30 to 6.30 | 5.30 to 6.30 | – |
| CNC(=O)[C@@H](NC(=O)[C@@H]1CN(C(=O)c2cncs2)CC12CN(C(=O)[C@H]1CC1(C)C)C2)[C@@H](C)OCC1CC2CCC1C2 (stereo partly drawn) [I-465] | 5.30 to 6.30 | ≥ 6.30 | – |
| COC[C@H]1CCCN(C(=O)[C@@H](NC(=O)[C@@H]2CN(C(=O)c3cncs3)CC23CN(C(=O)[C@H]2CC2(C)C)C3)[C@@H](C)O[C@H](C)C2CCCCC2)C1 [I-466] | 5.30 to 6.30 | – | 5.30 to 6.30 |
| C[C@@H](OCC1CCC(F)(F)CC1)[C@H](NC(=O)[C@@H]1CN(C(=O)c2cncs2)CC12CN(C(=O)[C@H]1CC1(C)C)C2)C(=O)N1C2CCC1COC2 [I-468] | ≥ 6.30 | ≥ 6.30 | – |
| CC1(C)C[C@@H]1C(=O)N1CC2(CN(C(=O)c3cncs3)C[C@H]2C(=O)NC(c2cccc(C3CCCCC3)n2)P(C)(C)=O)C1 (stereo partly drawn) [I-494] | < 5.00 | < 4.70 | – |
| CC1(C)C[C@@H]1C(=O)N1CC2(CN(C(=O)c3cncs3)C[C@H]2C(=O)NC(c2cccc(C3CCCCC3)n2)C2COCCO2)C1 (stereo partly drawn) [I-496] | < 5.00 | 4.70 to 5.30 | – |
